According to patent US20200270309A1, “MALEIMIDE GROUP-MODIFIED ANGIOGENESIS INHIBITOR HM-1 AND USE THEREOF” (NANJING ANJI BIOLOGICAL TECHNOLOGY CO., LTD, priority 2017, published 2020):
Marks after values point to notes of the source that are not given here. Peptide text beside a SMILES is read from it. * marks the point of attachment. X60 = O=C1C=CC(=O)N1c1ccccc1CCCCCCCCCC(=O)*; X46 = O=C1C=CC(=O)N1c1cccc(CCCCC(=O)*)c1

Key:
[1] = tested on: corneal neovascularization; assay: Corneal neovascularization induced by alkali burn in BALB/c mice; format: in vivo; set-up: Inhibition rate (corneal neovascularization): concentration or dose not given beside the values; settings: day 14 after alkali burn, vitreous injection once a day for 1 week
splenic lymphocytes = assay: Proliferation of splenic lymphocytes in mice (ConA, MTT); format: cell-based; settings: ConA-stimulated mouse splenic lymphocytes, 48 h
Experimental: Spleens of mice were taken out under aseptic conditions, washed with blank 1640 culture medium 3 times, ground with a 5 mL syringe core, filtered with a 200-mesh sieve, made into a single cell suspension. The suspension was centrifuged (1000 rpm×5 min), and supernatant was removed. Red blood cells were lysed by Tris-NH4Cl, and placed in ice water bath for 4 min and centrifuged (1000 rpm×5 min). The supernatant was removed, and the cells were washed twice with sterile PBS. Finally, RPMI 1640 culture solution (5 mL) containing 10% calf serum was added to suspend the cells. The cells were counted and the cell concentration was adjusted to 5×10^6 cells/mL, and the cells were cultured in a 96-well culture plate.
Blank control group, concanavalin A (ConA) group and dexamethasone (Dex) group were set in the experiment, and polypeptide X1-X90 groups were set as test groups. After 100 μL of splenic lymphocytes suspension per well was added into each group, 100 μL of blank 1640 culture solution was added into the blank control group, ConA was added into the ConA group, Dex was added into the Dex group, and ConA was added into the test groups on the basis of adding different concentrations of polypeptides X1-X90. The cells were static cultured at 37° C. in a cell incubator for 48 h. After the cultivation was completed, 20 μL of MTT was added to each well, and the cultivation was continued for 4 h. Finally, all the solutions in each well were discarded. 100 μL DMSO was added to each well and shaken, and the OD value at 570 nm was detected with a microplate reader. Five parallel experiments were set in each well.

[2] = tested on: carrageenan-induced toe swelling; assay: Carrageenan-induced toe swelling in rats; format: in vivo; settings: SD rats; for Swelling degree 1 h: 1 h after carrageenan; for Swelling degree 3 h: 3 h after carrageenan; for Swelling degree 5 h: 5 h after carrageenan; for Swelling degree 7 h: 7 h after carrageenan
Experimental: The rats were injected once a day, and the model group was given the same volume of normal saline for 3 d and fed normally. […] The foot swelling degree was calculated according to the following formula: foot swelling degree (mL)=foot volume after inflammation-foot volume before inflammation. The number of milliliters of overflow liquid was recorded (method: a ballpoint pen is used to circle the protruding point of the right joint as a measurement mark, and the right hind feet of each rat are sequentially placed into the volume measurer, so that the hind limbs are exposed outside the barrel, and the immersion depth is at the coincidence of the circle and the liquid level. After the foot enters the liquid, the liquid level rises, and the volume of overflow liquid is the volume of the right hind foot of the rat, and the normal volume of the right hind foot of each rat is measured in sequence).

[3] = tested on: choroidal neovascularization; assay: Choroidal neovascularization in rats (laser photocoagulation, FFA); format: in vivo; settings: BN rats
Experimental: 6-8 weeks male BN rats were fully anesthetized by intraperitoneal injection of 846 compound anesthetic with a concentration of 0.5 mL/kg. Compound tropicamide eye drops were used once 5 min before laser photocoagulation to fully dilate the pupils of both eyes. The animals were fixed and subjected to krypton laser photocoagulation equidistantly around an optic disc with the aid of a −53.00D corneal contact lens at a distance of 2PD from the optic disc. A total of 8 photocoagulation spots were obtained. The laser wavelength was 647.1 nm, the power was 350 mW, and the diameter and time of the photocoagulation spots were 50 μm and 0.05 s respectively. Fundus photography was performed immediately after photocoagulation. FFA, histopathology and transmission electron microscopy were performed on the days 3, 7, 14, 21 and 28 after photocoagulation respectively.
Through fundus photography and FFA examination, it was confirmed that the fluorescein leakage of the photocoagulation spot reached its peak on day 21 after photocoagulation. At the same time, histopathological examination was carried out.
Rats with successful modeling were randomly grouped, with 5 rats in each group. The groups were marked as a negative control group and X1-X90 treatment groups respectively. The rats were injected with normal saline and X1-X90 (the doses of X1-X90 were each 0.05 μM) in the vitreous chamber once a day for 1 week. FFA examination was carried out 3 days, 7 days, 14 days and 28 days after administration.

[4] = tested on: human retinal capillary endothelial cells (HRCECs); assay: MTT proliferation inhibition on HRCECs; format: cell-based; settings: 48 h; for A570 nm-A630 nm: mean±SD
Experimental: An MTT method was used to detect the inhibitory activity of the angiogenesis inhibitor polypeptide on proliferation of HRCECs. HRCECs were digested and collected with trypsin after being cultured in an incubator at 37° C. with 5% CO2 to a density of 90% or more. The cells were resuspended with a culture solution and counted under a microscope, the cell concentration was adjusted to 3.0×10^4 cells/mL, and the cell suspension was inoculated into a 96-well plate at 100 μL/well, and cultured overnight in an incubator at 37° C. with 5% CO2. After the cells were completely adhered to the wall, cells with the addition of the angiogenesis inhibitor polypeptide were used as administration groups, cells with the addition of Avastin were used as a positive control group, and cells with the addition of culture solution without any drugs were used as a blank control group. The cells were diluted to respective predetermined concentrations with the culture solution. The diluent were added into 96-well plates respectively at 100 μL per well, and the cells were cultured at 37° C. for 48 h in an incubator with 5% CO2. 20 μL of 5 mg/mL MTT was added into each well of the 96-well plate, and the cultivation was continued for 4 h. The culture medium was removed, and 100 μL of DMSO was added to each well for dissolution. The absorbance was measured at a detection wavelength of 570 nm and a reference wavelength of 630 nm using a microplate reader, and the PIR was calculated by the formula as follows:
PIR (%)=1−administration group/negative group
The experiment was repeated independently three times. The results were expressed as mean±SD, and statistical T test was conducted. *P<0.05 indicates significant difference, and **P<0.01 indicates extremely significant difference.

[5] = day 3 after administration, total light spot number was 297, 0.05 μM in the vitreous chamber once a day for 1 week
[6] = day 7 after administration, total light spot number was 186, 0.05 μM in the vitreous chamber once a day for 1 week
[7] = day 14 after administration, total light spot number was 137, 0.05 μM in the vitreous chamber once a day for 1 week
[8] = day 28 after administration, total light spot number was 69, 0.05 μM in the vitreous chamber once a day for 1 week

| Compound | Inhibition rate (corneal neovascularization) [1] | MVD (corneal microvessel density) [1] | A570 nm/A630 nm (splenic lymphocytes; polypeptide dose 0.05 μM) | Inhibition rate (%) (splenic lymphocytes; polypeptide dose 0.05 μM) | A570 nm/A630 nm (splenic lymphocytes; polypeptide dose 0.1 μM) | Inhibition rate (%) (splenic lymphocytes; polypeptide dose 0.1 μM) | A570 nm/A630 nm (splenic lymphocytes; polypeptide dose 0.2 μM) | Inhibition rate (%) (splenic lymphocytes; polypeptide dose 0.2 μM) | Swelling degree 1 h ([2]; 2.0 mg/kg once a day for 3 d) | Swelling degree 3 h ([2]; 2.0 mg/kg once a day for 3 d) | Swelling degree 5 h ([2]; 2.0 mg/kg once a day for 3 d) | Swelling degree 7 h ([2]; 2.0 mg/kg once a day for 3 d) | Swelling degree 1 h ([2]; 4.0 mg/kg once a day for 3 d) | Swelling degree 3 h ([2]; 4.0 mg/kg once a day for 3 d) | Swelling degree 5 h ([2]; 4.0 mg/kg once a day for 3 d) | Swelling degree 7 h ([2]; 4.0 mg/kg once a day for 3 d) | CNV Incidence (%) [3, 5] | Leakage Light spot number [3, 5] | CNV Incidence (%) [3, 6] | Leakage Light spot number [3, 6] | other results |
| --- | --- | --- | --- | --- | --- | --- | --- | --- | --- | --- | --- | --- | --- | --- | --- | --- | --- | --- | --- | --- | --- |
| C[C@H](NC(=O)CNC(=O)[C@H](CCCNC(=N)N)NC(=O)CCCCCCCCCc1ccccc1N1C(=O)C=CC1=O)C(=O)N[C@@H](CC(=O)O)C(=O)N[C@@H](CCCNC(=N)N)C(=O)N[C@@H](C)C(=O)NCC(=O)NCC(=O)NCC(=O)NCC(=O)N[C@@H](CCCNC(=N)N)C(=O)NCC(=O)N[C@@H](CC(=O)O)C(=O)O [X21] (X60-RGADRAGGGGRGD-OH) | 45.93% | 36.36 ± 3.663 | 0.5904 ± 0.0399 | 12.59% | 0.5776 ± 0.1193 | 14.48% | 0.4947 ± 0.1055 | 26.75% | 0.23 ± 0.19 mg | 0.32 ± 0.17 mg | 0.39 ± 0.16 mg | 0.33 ± 0.12 mg | 0.25 ± 0.17 mg | 0.33 ± 0.13 mg | 0.39 ± 0.14 mg | 0.35 ± 0.18 mg | 50.84% | 151 | 47.85% | 89 | CNV Incidence (%) [3, 7]: 46.72%; Leakage Light spot number [3, 7]: 64; CNV Incidence (%) [3, 8]: 40.58%; Leakage Light spot number [3, 8]: 28; Inhibition rate (%) ([4]; dose 0.05 μM): 48.85%*; A570 nm-A630 nm ([4]; dose 0.05 μM): 0.6761 ± 0.01737; Inhibition rate (%) ([4]; dose 0.1 μM): 67.15%**; A570 nm-A630 nm ([4]; dose 0.1 μM): 0.4342 ± 0.04189; Inhibition rate (%) ([4]; dose 0.2 μM): 69.16%*; A570 nm-A630 nm ([4]; dose 0.2 μM): 0.4076 ± 0.06848 |
| C[C@H](NC(=O)CNC(=O)[C@H](CCCNC(=N)N)NC(=O)CCCCc1cccc(N2C(=O)C=CC2=O)c1)C(=O)N[C@@H](CC(=O)O)C(=O)N[C@@H](CCCNC(=N)N)C(=O)N[C@@H](C)C(=O)NCC(=O)NCC(=O)NCC(=O)NCC(=O)N[C@@H](CCCNC(=N)N)C(=O)NCC(=O)N[C@@H](CC(=O)O)C(=O)O [X28] (X46-RGADRAGGGGRGD-OH) | 46.59% | 35.91 ± 4.891 | 0.5765 ± 0.0594 | 14.64% | 0.5541 ± 0.0486 | 17.96% | 0.5087 ± 0.0793 | 24.68% | 0.29 ± 0.13 mg | 0.35 ± 0.15 mg | 0.45 ± 0.17 mg | 0.36 ± 0.14 mg | 0.28 ± 0.15 mg | 0.34 ± 0.11 mg | 0.37 ± 0.17 mg | 0.35 ± 0.18 mg | 50.17% | 149 | 46.77% | 87 | CNV Incidence (%) [3, 7]: 45.26%; Leakage Light spot number [3, 7]: 62; CNV Incidence (%) [3, 8]: 40.58%; Leakage Light spot number [3, 8]: 28; Inhibition rate (%) ([4]; dose 0.05 μM): 48.58%*; A570 nm-A630 nm ([4]; dose 0.05 μM): 0.6796 ± 0.03488; Inhibition rate (%) ([4]; dose 0.1 μM): 52.72%**; A570 nm-A630 nm ([4]; dose 0.1 μM): 0.6249 ± 0.09489; Inhibition rate (%) ([4]; dose 0.2 μM): 69.71%*; A570 nm-A630 nm ([4]; dose 0.2 μM): 0.4004 ± 0.02963 |
